Article PMC10584170, “Machine learning-based phenotypic imaging to characterise the targetable biology of Plasmodium falciparum male gametocytes for the development of transmission-blocking antimalarials” (PLOS Pathogens, 2023)
Like-named read-outs stand apart in the source and are kept apart here.

Tests used:
[1] = tested on: P. falciparum female gametocytes; experiment: P. falciparum Dual Gamete Formation Assay (PfDGFA), female readout (Pfs25-positive female gametes); format: cell-based, Plasmodium falciparum NF54; conditions: for Selectivity ratio F: HepG2 Tox50 versus female IC50; for IC50: read-out: Female IC50
Outline: (§1)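 Day-14 NF54 gametocytes were incubated with compound for 24 h at 37°C under 1% O2/3% CO2/96% N2. Gametogenesis was triggered with ookinete medium (0.1 μM xanthurenic acid) plus Cy3-anti-Pfs25, and exflagellation was imaged by brightfield after cooling to 4°C then 28°C. Females were imaged by Pfs25 fluorescence 24 h later at 28°C.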

[2] = tested on: P. falciparum male gametocytes; experiment: P. falciparum Dual Gamete Formation Assay (PfDGFA), male readout (exflagellation); format: cell-based, Plasmodium falciparum NF54; conditions: for Selectivity Ratio M: HepG2 Tox50 versus male IC50; for IC50: read-out: Male IC50
Outline: as §1

HepG2 cells = experiment: HepG2 cytotoxicity counter-screen; conditions: cytotoxic activity against HepG2 cells
[3] = 2µM, 24h preincubation with gametocytes, average of replicates
[4] = 2µM, 24h preincubation with gametocytes, replicate R1
[5] = 2µM, 24h preincubation with gametocytes, replicate R3
[6] = 2µM, 24h preincubation with gametocytes, replicate R4
[7] = PfDGFA, 24 h incubation with gametocytes before induction, female gamete readout
[8] = PfDGFA, 24 h incubation with gametocytes before induction, exflagellation readout
[9] = Plasmodium falciparum, read-out: % inhibition female (individual replicates) R1
[10] = Plasmodium falciparum, read-out: % inhibition female (individual replicates) R2
[11] = Plasmodium falciparum, read-out: % inhibition female (individual replicates) R3
[12] = Plasmodium falciparum, read-out: % inhibition female (individual replicates) R4
[13] = Plasmodium falciparum, read-out: Average inhibition female (%)
[14] = Plasmodium falciparum, read-out: % inhibition male (individual replicates) R1
[15] = Plasmodium falciparum, read-out: % inhibition male (individual replicates) R2
[16] = Plasmodium falciparum, read-out: % inhibition male (individual replicates) R4
[17] = Plasmodium falciparum, read-out: Average inhibition male (%)
[18] = PfDGFA at 2µM, 24h preincubation with gametocytes, average of replicates
[19] = PfDGFA at 2µM, 24h preincubation with gametocytes, replicate R1
[20] = PfDGFA at 2µM, 24h preincubation with gametocytes, replicate R3
[21] = PfDGFA at 2µM, 24h preincubation with gametocytes, replicate R4

SMILES	Average inhibition female (%) [1, 3] [%]	% inhibition female (individual replicates) R1 [1, 4] [%]	% inhibition female (individual replicates) R3 [1, 5] [%]	% inhibition female (individual replicates) R4 [1, 6] [%]	Selectivity ratio F [1]	IC50 [1, 7] [µM]	Average inhibition male (%) [2, 3] [%]	% inhibition male (individual replicates) R1 [2, 4] [%]	% inhibition male (individual replicates) R4 [2, 6] [%]	Selectivity Ratio M [2]	IC50 [2, 8] [µM]	Tox50 (HepG2 cells) [µM]	% inhibition male (individual replicates) R3 [2, 5] [%]	other results
Clc1ccc(/N=C(/NCCCCCCCN/C(=N\c2ccc(Cl)cc2)Nc2ccc(Cl)cc2)Nc2ccc(Cl)cc2)cc1 [TCMDC-137529]	51.0	61.8	39.3	54.5	1.6	1.44	95.0	95.9	94.9	2.06	1.12	2.3		
CCCCCCC(N)c1ccc(OCCCOc2ccc(C(N)CCCCCC)cc2)cc1.Cl (stereo not shown) [TCMDC-137621]	47.1	37.5	53.9	41.4	2.08	1.71	94.3	98.4	99.6	3.34	1.07	3.56	82.0	
CC(CO)(CO)NCc1cc2c3ccccc3c(CNC(C)(CO)CO)cc2c2ccccc12.CS(=O)(=O)O [TCMDC-137752]					2.72					14.99		13.04		IC50 ([1]; Plasmodium falciparum, 24 h): 4.79 µM; inhibition at 2 µM [1, 9]: 37.9%; inhibition at 2 µM [1, 10]: 48.4%; inhibition at 2 µM [1, 11]: 18.2%; inhibition at 2 µM [1, 12]: 48.2%; inhibition at 2 µM [1, 13]: 38.2%; IC50 ([2]; Plasmodium falciparum, 24 h): 0.87 µM; inhibition at 2 µM [2, 14]: 93.1%; inhibition at 2 µM [2, 15]: 93.5%; inhibition at 2 µM ([2]; Plasmodium falciparum, read-out: % inhibition male (individual replicates) R3): 85.5%; inhibition at 2 µM [2, 16]: 90.9%; inhibition at 2 µM [2, 17]: 90.8%
CCOc1c(CCNCCCCNCCc2ccc3ccccc3c2OCC)ccc2ccccc12.CS(=O)(=O)O [TCMDC-137759]	82.4	86.3	88.2	86.8	1.48	2.33	92.2	95.9	100.2	2.62	1.31	3.44	97.8	
CS(=O)(=O)O.CSc1ccc2ccccc2c1CCNCCCCNCCc1c(SC)ccc2ccccc12 [TCMDC-137763]	55.5	47.6	28.5	71.9	1.79	2.08	90.7	94.6	98.9	2.67	1.4	3.73	73.0	
CCC1=C[C@@H]2CN(C1)Cc1c([nH]c3ccccc13)[C@@](C(=O)OC)(c1cc3c(cc1OC)N(C)[C@H]1[C@@](O)(C(=O)OC)[C@H](O)[C@]4(CC)C=CCN5CC[C@]31[C@@H]54)C2.O=S(=O)(O)O [TCMDC-137769]					5.57					5697.96		55.68		IC50 ([1]; Plasmodium falciparum, 24 h): > 10 µM; inhibition at 2 µM [1, 9]: 4.8%; inhibition at 2 µM [1, 10]: -7.3%; inhibition at 2 µM [1, 11]: 2.7%; inhibition at 2 µM [1, 12]: 9.5%; inhibition at 2 µM [1, 13]: 2.4%; IC50 ([2]; Plasmodium falciparum, 24 h): 0.01 µM; inhibition at 2 µM [2, 14]: 101%; inhibition at 2 µM [2, 15]: 99.3%; inhibition at 2 µM [2, 16]: 103%; inhibition at 2 µM [2, 17]: 101%
CC(=NNC(=S)NC(C)(C)C)c1ccccn1 [TCMDC-137783]	58.4	41.7	38.4	72.1	0.11	0.97	101.1	99.9	104.2	0.9	0.11	0.1	98.6	
COc1ccc2ccc(OC)c(CNCCCCCCNCc3c(OC)ccc4ccc(OC)cc34)c2c1.CS(=O)(=O)O [TCMDC-137796]	38.4	29.7	9.8	40.9	1.12	3.65	93.5	89.3	102.2	2.84	1.43	4.07	82.0	
Br.c1cc(C2=NC3CCCCC3N2)ccc1OCCCOc1ccc(C2=NC3CCCCC3N2)cc1 (stereo not shown) [TCMDC-137803]					3.68					32.57		36.78		inhibition at 2 µM ([1]; Plasmodium falciparum, 2µM, 24h preincubation with gametocytes, average of replicates, read-out: Average inhibition female (%)): 39.4%; inhibition at 2 µM ([1]; Plasmodium falciparum, 2µM, 24h preincubation with gametocytes, replicate R1, read-out: % inhibition female (individual replicates) R1): 33.6%; inhibition at 2 µM ([1]; Plasmodium falciparum, 2µM, 24h preincubation with gametocytes, replicate R2, read-out: % inhibition female (individual replicates) R2): 49.2%; inhibition at 2 µM ([1]; Plasmodium falciparum, 2µM, 24h preincubation with gametocytes, replicate R3, read-out: % inhibition female (individual replicates) R3): 5.9%; inhibition at 2 µM ([1]; Plasmodium falciparum, 2µM, 24h preincubation with gametocytes, replicate R4, read-out: % inhibition female (individual replicates) R4): 68.9%; IC50 ([1]; Plasmodium falciparum, PfDGFA, 24 h incubation with gametocytes before induction, female gamete readout): > 10 µM; inhibition at 2 µM ([2]; Plasmodium falciparum, 2µM, 24h preincubation with gametocytes, average of replicates, read-out: Average inhibition male (%)): 96.1%; inhibition at 2 µM ([2]; Plasmodium falciparum, 2µM, 24h preincubation with gametocytes, replicate R1, read-out: % inhibition male (individual replicates) R1): 93.1%; inhibition at 2 µM ([2]; Plasmodium falciparum, 2µM, 24h preincubation with gametocytes, replicate R2, read-out: % inhibition male (individual replicates) R2): 96.3%; inhibition at 2 µM ([2]; Plasmodium falciparum, 2µM, 24h preincubation with gametocytes, replicate R3, read-out: % inhibition male (individual replicates) R3): 92.1%; inhibition at 2 µM ([2]; Plasmodium falciparum, 2µM, 24h preincubation with gametocytes, replicate R4, read-out: % inhibition male (individual replicates) R4): 103%; IC50 ([2]; Plasmodium falciparum, PfDGFA, 24 h incubation with gametocytes before induction, exflagellation readout): 1.13 µM
Nc1nc(N)c2c(ccc3c2ccn3Cc2ccc3c(c2)OCO3)n1 [TCMDC-137808]					0.18	0.84				0.19	0.76	0.15		Average inhibition female (%) [1, 18]: 83.7%; % inhibition female (individual replicates) R1 [1, 19]: 77.5%; % inhibition female (individual replicates) R3 [1, 20]: 80.4%; % inhibition female (individual replicates) R4 [1, 21]: 88.7%; HitlevelF ([1]; number of replicates with >50% inhibition in the female readout, 2µM): 4; Average inhibition male (%) [2, 18]: 70.0%; % inhibition male (individual replicates) R1 [2, 19]: 66.3%; % inhibition male (individual replicates) R3 [2, 20]: 77.8%; % inhibition male (individual replicates) R4 [2, 21]: 76.3%; HitlevelM ([2]; number of replicates with >50% inhibition in the male readout, 2µM): 4
